Data reported in patent US5079228A, “Peptide inhibitors of neutrophil activating factor induced chemotaxis” (Board of Regents, The University of Texas System, priority 1990, dated 1992).
Entries after “also recorded” stand apart in the source; their conditions may differ.

Columns and labels:
[1] = test system: neutrophil chemotaxis; settings: Tanaka et al.; cited from earlier work
[2] = test system: cytochalasin B primed neutrophils; assay: Enzyme release from neutrophils (β-D-glucuronidase, microtiter plate); format: cell-based, human; settings: 37° C., 30 min, FIG. 3
Method: Neutrophil enzyme release was measured by a modification of the method of Goldstein and colleagues.^23 Cytochalasin B (Sigma Chemical Co., St. Louis, Mo.) was stored in dimethylsulphoxide at a concentration of 5 mg/ml and diluted to a concentration of 100 μg/ml in Hanks' balanced salt solution (HBSS) immediately before use. Neutrophils were prepared as described and incubated at a cell density of 5×10^6 cells/ml for ten minutes at room temperature in the presence of Cytochalasin B (10 μg/ml). Aliquots of 100 μl of the primed cell suspension were then distributed into the wells of a 96-well microtiter plate and 100 μl of stimulant was added. The cells were then incubated at 37° C. for 30 min. The plates were centrifuged at 850 rpm for 5 min, and 100 μl of supernatant was removed. The supernatants were assayed for β-D-glucuronidase activity.
The ability of native NAF and the synthetic peptides to induce the release of β-D-glucuronidase from cytochalasin B primed neutrophils was examined using a microtiter plate technique. […]
β-D-glucuronidase was measured by determining the change in absorbance of phenolphthalein β-D-glucuronide (Sigma Chemical Co.) at 540 nm by the method of Gianetto and DeDuve.^24 The results were expressed as picomoles of substrate hydrolysed per hour.

[3] = test system: human neutrophils; assay: Neutrophil chemotaxis, leading front method in blind well chamber (chemotactic activity of the peptide itself); format: cell-based; settings: for DISTANCE MOVED (% of control): control = RPMI-1640; for effect on cell migration (in words): peptide concentration of 1×10^-9 M, FIG. 1
Method: Each of the peptides was assayed for its ability to induce the directed migration of neutrophils towards itself. […] The distances migrated by the cells, under the influence of the various peptides, was therefore expressed as a percentage of the distance travelled in RPMI tissue culture medium alone. In the first experiments the effect of native NAF on the cells was compared to that of FMLP (FIG. I). […] None of the synthetic peptides induced chemotaxis either alone or in combination with one another when the synthetic peptides were examined under the same conditions (FIG. 2).
(§1) Human blood was anticoagulated with heparin.
(§2) Chemotaxis was performed using the leading front method as described by Zigmond and Hirsch.^21 The test material was placed in the lower well of a blind well chemotaxis chamber.^22 A five micron pore size, and 100 μl aliquot of the neutrophil preparation (1×10^6 cells/ml) in RPMI-1640 containing 1% albumin was added to the top of the filter and incubated at 37° C. for 30 min. (In some experiments neutrophils were pre-incubated in the presence of peptide for 10 min at room temperature before being added to the upper chamber.) The filter was then fixed and stained and mounted on a glass microscope slide. The leading front was determined by the position of the leading two cells. The distance that the leading two cells had moved through the filter was measured for six fields on each filter. The measurements were made with two filters for each set of conditions.

[4] = test system: Neutrophil activating factor induced human neutrophil chemotaxis; assay: Inhibition of NAF-induced neutrophil chemotaxis; format: cell-based
Excerpt: (§3) The peptides were examined to determine if any of the peptides could block the action of the native molecule. In these experiments the attractant in the lower well of the Boyden chamber contained both native NAF (1×10^-8 M) and one or more synthetic peptide(s) (1×10^-6 M) Table 2. The migration of the cells in RPMI tissue culture medium alone, or under the influence of native NAF or the individual peptides was also examined in each experiment. […] The mean migration of native NAF was an average of 79% (S.D.=3) above that of buffer alone, while the mean migration towards native NAF in the presence of NAF (3-25) was 32% (S.D.=10) and the mean migration towards native NAF in the presence of NAF (44-72) (S.D.=13) was 52% above control migration (Table 2). These reductions are statistically significant at p<0.002 by Student's t test. These two peptides inhibited NAF induced migration by 59 and 34% respectively. When NAF was incubated in the presence of both peptides the mean migration towards native NAF was 24% (S.D.=3) above controls for a total inhibition of NAF activity of 70%. Therefore, the inhibitory effects of the peptides were approximately additive.
as §1, §2

[5] = test system: chemotaxis induced by FMLP; assay: Specificity: effect on FMLP-induced neutrophil chemotaxis; format: cell-based, human; settings: FMLP 5 × 10^-9 M plus peptide 1 × 10^-6 M
Excerpt: as §3, with “These two peptides inhibited NAF induced migration by 59 and 34% respectively. When NAF was incubated in the presence of both peptides the mean migration towards native NAF was 24% (S.D.=3) above controls for a total inhibition of NAF activity of 70%. Therefore, the inhibitory effects of the peptides were approximately additive.” left out
Chemotaxis was performed using the leading front method as described by Zigmond and Hirsch.^21 The test material was placed in the lower well of a blind well chemotaxis chamber.^22 A five micron pore size, and 100 μl aliquot of the neutrophil preparation (1×10^6 cells/ml) in RPMI-1640 containing 1% albumin was added to the top of the filter and incubated at 37° C. for 30 min. […] The leading front was determined by the position of the leading two cells. The distance that the leading two cells had moved through the filter was measured for six fields on each filter. […]

[6] = NAF 1 × 10^-8 M plus peptide 1 × 10^-6 M in lower well
[7] = NAF 1 × 10^-8 M, neutrophils preincubated with peptide 1 × 10^-6 M (10 min, room temperature)

(7-37): peptide of Tanaka et al. corresponding to residues (7-37) of the NAF sequence (AKELRCQCIKTYSKPFHPKFIKELRVIESGP; Interleukin-8; UniProt P10145 29-59, looked up, fragment)
chemotactic activity (in words) [1]: inactive
inhibition of chemotaxis (in words) [1]: did not find that any of their synthetic peptides inhibited chemotaxis

Neutrophil activating factor [NAF]
release of β-D-glucuronidase from neutrophils (in words) [2]: Neither NAF nor any of the synthetic peptides caused the cells to degranulate; also recorded: failed to release β-D-glucuronidase; also recorded: None of the synthetic peptides, nor native NAF, caused release of β-D-glucuronidase
DISTANCE MOVED (% of control) ([3]; NAF alone, 1 × 10^-8 M): 179 ± 3 % of control
mean migration above that of buffer alone ([3]; native NAF 1 × 10^-8 M): 79%
effect on cell migration (in words) [3]: increase the cell migration

(17-37): peptide of Tanaka et al. corresponding to residues (17-37) of the NAF sequence (TYSKPFHPKFIKELRVIESGP; Interleukin-8; UniProt P10145 39-59, looked up, fragment)
chemotactic activity (in words) [1]: inactive
inhibition of chemotaxis (in words) [1]: did not find that any of their synthetic peptides inhibited chemotaxis

(30-72): peptide of Tanaka et al. corresponding to residues (30-72) of the NAF sequence (LRVIESGPHCANTEIIVKLSDGRELCLDPKENWVQRVVEKFLK; Interleukin-8; UniProt P10145 52-94, looked up, fragment)
chemotactic activity (in words) [1]: inactive
inhibition of chemotaxis (in words) [1]: did not find that any of their synthetic peptides inhibited chemotaxis

FMLP
release of β-D-glucuronidase from neutrophils (in words) [2]: stimulated release from the cells was possible
DISTANCE MOVED (% of control) ([3]; FMLP alone, 5 × 10^-9 M): 180 ± 17 % of control
effect on cell migration (in words) [3]: increase the cell migration

KELRCQCIKTYSKPFHPKFIKEL [NAF(3-25)]
DISTANCE MOVED (% of control) ([3]; synthetic peptide alone, 1 × 10^-6 M in lower well): 100 ± 6 % of control
DISTANCE MOVED (% of control) [4, 6]: 132 ± 10 % of control
INHIBITION (%) of NAF-induced neutrophil chemotaxis [4, 6]: 59 ± 13%
INHIBITION (%) of NAF-induced neutrophil chemotaxis ([4]; NAF 1 × 10^-8 M plus peptide 1 × 10^-6 M in lower well, listed as NAF (3-25)): 59%
DISTANCE MOVED (% of control) [4, 7]: 97 ± 11 % of control
INHIBITION (%) of NAF-induced neutrophil chemotaxis [4, 7]: 104 ± 14%
mean migration towards native NAF in the presence of peptide, above control migration ([4]; native NAF 1 × 10^-8 M plus synthetic peptide(s) 1 × 10^-6 M): 32%
effect on the action of native NAF (in words) ([4]; native NAF plus synthetic peptide): able to reduce neutrophil chemotaxis; also recorded: reduce the action of native NAF
DISTANCE MOVED (% of control) [5]: 190 ± 18 % of control
